Results published in patent US20260207388A1, “WOUND DRESSING” (ConvaTec Limited, priority 2023, published 2026).

How the values were obtained:
Conditions in all cases: EDTA at concentrations of 0.1-40 wt. % by volume
Pseudomonas aeruginosa = tested on: Pseudomonas aeruginosa
Serratia marcescens = tested on: Serratia marcescens
[1] = tested on: vancomycin resistant Enterococcus (VRE)
[2] = tested on: methicillin resistant Staphylococcus aureus (MRSA)

Measured: killing of microorganisms in the planktonic and biofilm state

O=C(O)CN(CCN(CC(=O)O)CC(=O)O)CC(=O)O [EDTA, ethylenediaminetetra-acetic acid]
effectively killed: all assays above
